This note sets out measurements from patent US11613542B2, “Sulfonylureas and sulfonylthioureas as NLRP3 inhibitors” (Inflazome Limited, priority 2017, dated 2023).

For orientation: IC50 means the concentration that gives 50% inhibition.

Assay [1] concerns the target T1, NLRP3 (Homo sapiens, UniProt Q96P20). Description: THP-1 cells pyroptosis assay. It is filed as cell-based. Also on record: Seed THP-1 cells (25,000 cells/well) containing 1.0 μg/ml LPS; host or cells: THP-1 cells, LPS-primed, nigericin-stimulated. The note with it: THP-1 cells, 1.0 μg/ml LPS, compound 3 hrs, nigericin 5 μM 1 hr, resazurin readout; read-out: THP IC50. Put shortly:
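THP-1 cells (25,000/well) in serum-free RPMI with 1.0 μg/ml LPS, treated with compound (8-point half-log dilution, 10 μM top, 0.1% DMSO), then nigericin 5 μM final. Viability read by resazurin (100 μM final, 1-2 h, 37° C) fluorescence Ex 560/Em 590 nm; IC50 from 4-parameter variable-slope fit.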
For orientation: The colour change of resazurin is a common sign of viable cells or microbes.

Assay [2] deals with T1, NLRP3. The assay is described as follows: Human whole blood IL1β release assay. It is filed as cell-based. The arrangement: Human whole blood in Li-heparin tubes was obtained from healthy donors; from tissue; host or cells: human whole blood from healthy donors, LPS-primed, nigericin-stimulated. The following applies: human whole blood, 1 μg/ml LPS, compound 3 hrs, nigericin 10 μM 1 hr, IL-1β AlphaLisa; read-out: HWB IC50. As to the method: Human Whole Blood IL1β Release Assay
For systemic delivery, the ability to inhibit NLRP3 when the compounds are present within the bloodstream is of great importance. For this reason, the NLRP3 inhibitory activity of a number of compounds in human whole blood was investigated in accordance with the following protocol.
Human whole blood in Li-heparin tubes was obtained from healthy donors from a volunteer donor panel. • 1. Plate out 80 μl of whole blood containing 1 μg/ml of LPS in 96-well, clear bottom cell culture plate (Corning #3585) • 2. Add 10 μl compound (8 points half-log dilution with 10 μM top dose) or vehicle (DMSO 0.1% FAC) to the appropriate wells • 3. Incubate for 3 hrs at 37° C., 5% CO2 • 4. Add 10 μl Nigericin (Sigma #N7143) (10 μM FAC) to all wells • 5. Incubate for 1 hr at 37° C., 5% CO2 • 6. At the end of the incubation period, spin plates at 300 xg for 5 mins to pellet cells and remove 20 μl of supernatant and add to 96-well v-bottom plates for IL-1β analysis (note: these plates containing the supernatants can be stored at −80° C. to be analysed at a later date) • 7. IL-1β was measured according to the manufacturer protocol (Perkin Elmer-AlphaLisa IL-1 Kit AL220F-5000) • 8. IC50 data is fitted to a non-linear regression equation (log inhibitor vs response-variable slope 4-parameters)

Counter-ions that a name gives are not always drawn. Bounds are passed on as bounds.

T1 sequence (Q96P20 whole entry): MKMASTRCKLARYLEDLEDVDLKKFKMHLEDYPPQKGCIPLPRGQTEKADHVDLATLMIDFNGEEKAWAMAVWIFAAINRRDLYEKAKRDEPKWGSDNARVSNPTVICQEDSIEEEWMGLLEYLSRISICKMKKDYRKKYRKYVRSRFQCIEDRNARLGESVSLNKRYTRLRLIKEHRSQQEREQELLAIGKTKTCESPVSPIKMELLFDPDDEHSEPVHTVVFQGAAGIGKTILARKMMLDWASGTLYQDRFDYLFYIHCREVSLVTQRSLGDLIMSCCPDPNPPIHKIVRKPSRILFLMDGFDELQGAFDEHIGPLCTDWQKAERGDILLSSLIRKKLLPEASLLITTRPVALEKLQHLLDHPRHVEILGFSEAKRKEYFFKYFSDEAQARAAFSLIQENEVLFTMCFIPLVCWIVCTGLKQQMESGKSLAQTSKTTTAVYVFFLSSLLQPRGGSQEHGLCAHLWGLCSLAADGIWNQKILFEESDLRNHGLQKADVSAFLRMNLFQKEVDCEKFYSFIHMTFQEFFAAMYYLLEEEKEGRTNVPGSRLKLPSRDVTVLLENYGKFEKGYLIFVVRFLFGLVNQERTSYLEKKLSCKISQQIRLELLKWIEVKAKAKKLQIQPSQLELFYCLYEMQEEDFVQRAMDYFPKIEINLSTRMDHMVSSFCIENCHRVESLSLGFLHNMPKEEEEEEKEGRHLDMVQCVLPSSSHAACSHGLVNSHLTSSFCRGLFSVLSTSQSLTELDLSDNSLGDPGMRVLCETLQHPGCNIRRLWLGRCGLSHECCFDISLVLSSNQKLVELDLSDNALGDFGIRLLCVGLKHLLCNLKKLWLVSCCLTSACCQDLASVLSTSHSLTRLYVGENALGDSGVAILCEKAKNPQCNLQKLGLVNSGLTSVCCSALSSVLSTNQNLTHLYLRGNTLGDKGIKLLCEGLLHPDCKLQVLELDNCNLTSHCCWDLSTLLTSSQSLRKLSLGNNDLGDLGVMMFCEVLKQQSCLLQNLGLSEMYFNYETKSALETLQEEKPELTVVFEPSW

With `CN(C)C1(c2cc(S(=O)(=O)NC(=O)Nc3c4c(cc5c3CCC5)CCC4)nn2C)COC1` [Example 122, 5-(3-(Dimethylamino)oxetan-3-yl)-N-((1,2,3,5,6,7-hexahydro-s-indacen-4-yl)carbamoyl)-1-methyl-1H-pyrazole-3-sulfonamide], the IC50 was less than 0.64 µM on NLRP3 [1] and less than 1.6 µM at NLRP3 [2].
Consider `COc1cc(-c2cc(F)c3c(c2NC(=O)NS(=O)(=O)c2ccn(CCN(C)C)n2)CCC3)ccn1` [Example 29, 1-(2-(Dimethylamino)ethyl)-N-((7-fluoro-5-(2-methoxypyridin-4-yl)-2,3-dihydro-1H-inden-4-yl)carbamoyl)-1H-pyrazole-3-sulfonamide], for which the 50% inhibitory concentration (IC50) is less than 0.04 µM at NLRP3 [1] and less than 0.4 µM on NLRP3 [2].
On to `CN(C)CCn1cnc(S(=O)(=O)NC(=O)Nc2c3c(cc4c2CCC4)CCC3)c1` [Example 23, 1-(2-(Dimethylamino)ethyl)-N-((1,2,3,5,6,7-hexahydro-s-indacen-4-yl)carbamoyl)-1H-imidazole-4-sulfonamide], for which the IC50 was less than 2.56 µM at NLRP3 [1] and less than 3.2 µM on NLRP3 [2].
For the molecule `Cn1ccnc1Cn1ccc(S(=O)(=O)NC(=O)Nc2c3c(cc4c2CCC4)CCC3)n1` [Example 118, N-((1,2,3,5,6,7-Hexahydro-s-indacen-4-yl)carbamoyl)-1-((1-methyl-1H-imidazol-2-yl)methyl)-1H-pyrazole-3-sulfonamide], the IC50 is less than 0.04 µM at NLRP3 [1] and less than 0.8 µM at NLRP3 [2].
The corresponding values for `CC(C)c1ccc(C(C)C)c(NC(=O)NS(=O)(=O)c2cc(C(=O)N(C)C)n(C)n2)c1` [Example 144, 3-(N-((2,5-Diisopropylphenyl)carbamoyl)sulfamoyl)-N,N,1-trimethyl-1H-pyrazole-5-carboxamide, sodium salt] are less than 0.64 µM and less than 10 µM.
In the case of `CN(C)C1(Cn2ccc(S(=O)(=O)NC(=O)Nc3c4c(cc5c3CCC5)CCC4)n2)CC1` [Example 11, 1-((1-(Dimethylamino)cyclopropyl)methyl)-N-((1,2,3,5,6,7-hexahydro-s-indacen-4-yl)carbamoyl)-1H-pyrazole-3-sulfonamide], the figures for the IC50 on NLRP3 [1] and at NLRP3 [2] were less than 0.64 µM and less than 1.6 µM, respectively.
On to `CN(C)CCn1cnc(S(=O)(=O)NC(=O)Nc2c3c(cc4c2CCC4)CCC3)n1` [Example 27, 1-(2-(Dimethylamino)ethyl)-N-((1,2,3,5,6,7-hexahydro-s-indacen-4-yl)carbamoyl)-1H-1,2,4-triazole-3-sulfonamide], for which the figures for the IC50 on NLRP3 [1] and at NLRP3 [2] were less than 0.64 µM and less than 0.8 µM, respectively.
In the case of `CC(=O)N(C)Cc1cc(S(=O)(=O)NC(=O)Nc2c3c(cc4c2CCC4)CCC3)nn1C(C)C` [Example 129, N-((3-(N-((1,2,3,5,6,7-Hexahydro-s-indacen-4-yl)carbamoyl)sulfamoyl)-1-isopropyl-1H-pyrazol-5-yl)methyl)-N-methylacetamide], the IC50 at NLRP3 [1] is less than 0.16 µM; on NLRP3 [2] it was less than 0.8 µM.
For the molecule `CC(C)c1cc(F)cc(C(C)C)c1NC(=O)NS(=O)(=O)c1cc(C(=O)N(C)C(C)C)n(C)n1` [Example 147, 3-(N-((4-Fluoro-2,6-diisopropylphenyl)carbamoyl)sulfamoyl)-N-isopropyl-N,1-dimethyl-1H-pyrazole-5-carboxamide], the IC50 at NLRP3 [1] is less than 0.16 µM; on NLRP3 [2], less than 0.8 µM.
Consider `CNC(=O)c1cc(S(=O)(=O)NC(=O)Nc2c(C(C)C)cc(Cl)cc2C(C)C)nn1C` [Example 132, 3-(N-((4-chloro-2,6-diisopropylphenyl)carbamoyl)sulfamoyl)-N,1-dimethyl-1H-pyrazole-5-carboxamide], for which the IC50 on NLRP3 [1] is less than 0.64 µM; at NLRP3 [2] it was less than 3.2 µM.
Turning to `CC(C)c1cccc(C(C)C)c1NC(=O)NS(=O)(=O)c1cc(C(=O)N(C)C2CC2)n(C)n1` [Example 143, N-Cyclopropyl-3-(N-((2,6-diisopropylphenyl)carbamoyl)sulfamoyl)-N,1-dimethyl-1H-pyrazole-5-carboxamide], the IC50 at NLRP3 [1] is less than 0.16 µM; on NLRP3 [2] it was less than 1.6 µM.
In the case of `CN(C)CCn1cc(S(=O)(=O)NC(=O)Nc2c3c(cc4c2CCC4)CCC3)nn1` [Example 25, 1-(2-(Dimethylamino)ethyl)-N-((1,2,3,5,6,7-hexahydro-s-indacen-4-yl)carbamoyl)-1H-1,2,3-triazole-4-sulfonamide, sodium salt], the IC50 was less than 0.64 µM on NLRP3 [1] and less than 3.2 µM on NLRP3 [2].
Regarding `CC(C)(C#N)n1ccc(S(=O)(=O)NC(=O)Nc2c3c(cc4c2CCC4)CCC3)n1` [Example 33, 1-(2-Cyanopropan-2-yl)-N-((1,2,3,5,6,7-hexahydro-s-indacen-4-yl)carbamoyl)-1H-pyrazole-3-sulfonamide], the IC50 is less than 0.16 µM on NLRP3 [1] and less than 1.6 µM on NLRP3 [2].
`O=C(Nc1c2c(cc3c1CCC3)CCC2)NS(=O)(=O)c1ccn(C2CNC2)n1` [Example 14, 1-(Azetidin-3-yl)-N-((1,2,3,5,6,7-hexahydro-s-indacen-4-yl)carbamoyl)-1H-pyrazole-3-sulfonamide]: the values for the IC50 at NLRP3 [1] and on NLRP3 [2] were less than 0.64 µM and less than 3.2 µM, respectively.
`CN(C)CCn1ccc(S(=O)(=O)NC(=O)Nc2c(-c3cccnc3)cc(F)c3c2CCC3)n1` [Example 28, 1-(2-(Dimethylamino)ethyl)-N-((7-fluoro-5-(pyridin-3-yl)-2,3-dihydro-1H-inden-4-yl)carbamoyl)-1H-pyrazole-3-sulfonamide]: the IC50 at NLRP3 [1] is less than 0.64 µM; on NLRP3 [2], less than 3.2 µM.
The corresponding values for `CNC(=O)c1cc(S(=O)(=O)NC(=O)Nc2c(C(C)C)cc(F)cc2C(C)C)nn1C` [Example 150, 3-(N-((4-Fluoro-2,6-diisopropylphenyl)carbamoyl)sulfamoyl)-N,1-dimethyl-1H-pyrazole-5-carboxamide] are less than 0.64 µM and less than 0.4 µM.
For the molecule `COc1cc(-c2ccc3c(c2NC(=O)NS(=O)(=O)c2ccn(C(C)(C)C#N)n2)CCO3)ccn1` [Example 190, 1-(2-Cyanopropan-2-yl)-N-((5-(2-methoxypyridin-4-yl)-2,3-dihydrobenzofuran-4-yl)carbamoyl)-1H-pyrazole-3-sulfonamide], the IC50 on NLRP3 [1] is less than 0.16 µM; at NLRP3 [2] it was less than 0.4 µM.
As to `CN(C)CC(C)(C)n1cc(S(=O)(=O)NC(=O)Nc2c3c(cc4c2CCC4)CCC3)cn1` [Example 183, 1-(1-(Dimethylamino)-2-methylpropan-2-yl)-N-((1,2,3,5,6,7-hexahydro-s-indacen-4-yl)carbamoyl)-1H-pyrazole-4-sulfonamide], the IC50 at NLRP3 [1] is less than 0.16 µM; at NLRP3 [2], less than 1.6 µM.
In the case of `CN1CCC[C@@H]1Cn1ccc(S(=O)(=O)NC(=O)Nc2c3c(cc4c2CCC4)CCC3)n1` [Example 21, (R)—N-((1,2,3,5,6,7-Hexahydro-s-indacen-4-yl)carbamoyl)-1-((1-methylpyrrolidin-2-yl)methyl)-1H-pyrazole-3-sulfonamide], the IC50 was less than 0.64 µM at NLRP3 [1] and less than 0.8 µM on NLRP3 [2].
In the case of `CN1CCC(n2ccc(S(=O)(=O)NC(=O)Nc3c4c(cc5c3CCC5)CCC4)n2)C1` (stereo not shown) [Example 205, N-((1,2,3,5,6,7-Hexahydro-s-indacen-4-yl)carbamoyl)-1-(1-methylpyrrolidin-3-yl)-1H-pyrazole-3-sulfonamide, sodium salt], the IC50 is less than 0.04 µM at NLRP3 [1] and less than 1.6 µM at NLRP3 [2].
`CNCC(C)(C)n1ccc(S(=O)(=O)NC(=O)Nc2c3c(cc4c2CCC4)CCC3)n1` [Example 204, N-((1,2,3,5,6,7-Hexahydro-s-indacen-4-yl)carbamoyl)-1-(2-methyl-1-(methylamino)propan-2-yl)-1H-pyrazole-3-sulfonamide, sodium salt]: the IC50 at NLRP3 [1] is less than 0.16 µM; on NLRP3 [2] it was less than 0.8 µM.
Consider `COc1cc(-c2ccc3c(c2NC(=O)NS(=O)(=O)c2ccn(C4CCN(C)C4)n2)CCC3)ccn1` (stereo not shown) [Example 193, N-((5-(2-Methoxypyridin-4-yl)-2,3-dihydro-1H-inden-4-yl)carbamoyl)-1-(1-methylpyrrolidin-3-yl)-1H-pyrazole-3-sulfonamide, sodium salt], for which the IC50 on NLRP3 [1] is less than 0.04 µM; at NLRP3 [2], less than 0.4 µM.
Turning to `CN(C)CCn1ncc(S(=O)(=O)NC(=O)Nc2c3c(cc4c2CCC4)CCC3)n1` [Example 199, 2-(2-(Dimethylamino)ethyl)-N-((1,2,3,5,6,7-hexahydro-s-indacen-4-yl)carbamoyl)-2H-1,2,3-triazole-4-sulfonamide], the IC50 on NLRP3 [1] was less than 0.64 µM; on NLRP3 [2], less than 1.6 µM.
